Data: ChEMBL document CHEMBL2034939, “Structure-based virtual screening of novel inhibitors of the uridyltransferase activity of Xanthomonas oryzae pv. oryzae GlmU” (Eur J Med Chem, 2012)
Values after ≈ are worked out from the molar mass of the structure shown.

Columns and labels:
[1] = Inhibition of Xanthomonas oryzae pv. oryzae KS-1-21 uridyltransferase domain of GlmU activity by ion-pair reverse-phase HPLC analysis
[2] = test system: Xanthomonas oryzae pv. oryzae; experiment: Antibacterial activity against Xanthomonas oryzae pv. oryzae KS-1-21 after 36 to 48 hrs by broth microdilution assay; format: functional
[3] = Noncompetitive inhibition of Xanthomonas oryzae pv. Oryzae KS-1-21 GlmU using 0.25 to 0.05 mM GlcNAc-1-p and 500 uM UTP by Lineweaver-Burk plot analysis
[4] = Noncompetitive inhibition of Xanthomonas oryzae pv. Oryzae KS-1-21 GlmU using varying concentration of UTP and 500 uM GlcNAc-1-p by Lineweaver-Burk plot analysis
[5] = Uncompetitive inhibition of Xanthomonas oryzae pv. Oryzae KS-1-21 GlmU using 0.25 to 0.05 mM GlcNAc-1-p and 500 uM UTP by Lineweaver-Burk plot analysis
[6] = Competitive inhibition of Xanthomonas oryzae pv. Oryzae KS-1-21 GlmU using varying concentration of UTP and 500 uM GlcNAc-1-p by Lineweaver-Burk plot analysis
[7] = Competitive inhibition of Xanthomonas oryzae pv. Oryzae KS-1-21 GlmU using 0.25 to 0.05 mM GlcNAc-1-p and 500 uM UTP by Lineweaver-Burk plot analysis
[8] = Uncompetitive inhibition of Xanthomonas oryzae pv. Oryzae KS-1-21 GlmU using varying concentration of UTP and 500 uM GlcNAc-1-p by Lineweaver-Burk plot analysis

Row | SMILES | IC50 [1] [µM] | MIC [2] [µg/mL] | also measured
1 | CCN(CC)c1ccc(/C=C(\NC(=O)c2ccccc2)C(=O)N/N=C/c2cc(O)ccc2Br)cc1 | 62.5 | > 500 | 
2 | CCCCCOc1ccc(/C=N/NC(=O)c2nnn(-c3nonc3N)c2CN2CCCCCC2)cc1 | 87.4 | > 500 | 
3 | Cc1cc(OCC(=O)NNC(=O)c2ccc(O)cc2O)cc(C)c1Cl | 23.2 | 420 (≈ 1150 µM) | Ki [3]: 19.4 µM; Ki [4]: 8.89 µM
4 | O=C(CCCCC(=O)NNC(=O)COc1ccc2ccccc2c1)NNC(=O)COc1ccc2ccccc2c1 | 14.2 | 302 (≈ 557 µM) | Ki [5]: 8.23 µM; Ki [6]: 8.1 µM
5 | CCOc1ccc(C(=O)NCCCCCCCNC(=O)c2ccc(OCC)cc2)cc1 | 76.5 | > 500 | 
6 | Cc1ccc(OCC(=O)Nc2ccccc2C(=O)NC2CCCCC2)cc1 | 84.2 | > 500 | 
7 | COc1ccc(C(=O)/C=C/c2cn(CC(O)CN3CCCCC3)c3ccccc23)cc1OC (configuration not stated) | > 100 | 82 (≈ 183 µM) | 
8 | O=c1cc(-c2ccc(O)c(O)c2)oc2cc(O)cc(O)c12 [LUTEOLIN] | 0.81 | 186 (≈ 651 µM) | Ki [7]: 0.44 µM; Ki [8]: 0.99 µM
